Experimental data as given in patent US4070401A, “Method for the preparation of a halogenated aromatic amine” (Mitsui Toatsu Chemicals Inc., priority 1972, dated 1978).

Assay: Dissociation constant pKb of the amine additive (Table 1)
Format: physicochemical
Conditions: measured at 25° C
Text: The inventors have conducted an extensive study on suppression or inhibition of halogenation reaction which would occur during preparation of a halogenated aromatic amine. As a result, the inventors discovered that when a halogenated aromatic nitro compound is hydrogenated in the presence of a predetermined amount of a platinum catalyst together with an amine selected from the group consisting of an alkylmonoamine, an alicyclic amine and a polyalkylenepolyamine, the dehalogenation may be suppressed to a minimum. The present invention has been completed on the basis of this discovery. The alkylmonoamine, alicyclic amine and polyalkylenepolyamine have common properties that they are an organic nitrogen-containing base having a dissociation constant pKb lower than 4.2. The dissociation constant herein described means that which is defined according to the dissociation equilibrium of the usual acid or base, i.e., when an organic nitrogen-containing base is expressed by RN, the dissociation equilibrium of RN is expressed by a formula
RN + H2 O .revreaction. RNH^+ + OH^-
and the dissociation constant is defined as follows [formula] where [ ]means activity.
Though the dissociation constant pKb is generally more or less varied with temperature, the pKb value is measured at 25° C herein.

Row | Structure (SMILES) | Dissociation Constant pKb
1 | CC(C)N [isopropylamine] | 3.4
2 | CN [methylamine] | 3.4
